Laboratory results from patent publication US5416070A, “Composition for macrophage activation” (ImmunoTherapeutics, Inc., priority 1990, dated 1995).

Assays:
[1] = tested on: human peripheral blood monocytes; test: Activation of monocytes in vitro measured by production of tumor necrosis factor (ELISA); format: cell-based; settings: for TNF (pg/ml) at given Concentration of Compound: 24 Hours
Experimental: (§1) Human peripheral blood monocytes were isolated by density gradient centrifugation as noted in Example 13. The cell number was adjusted to 5×10^5 cells per ml in RPM 1640 media containing 5% human AB negative serum. One ml containing 5×10^5 cells were placed in individual wells of a 24-well Plastek tissue culture plate. Various drugs in a volume of 0.5 ml were added at time zero. The cells were incubated at 37° C. in a 5% CO2 atmosphere. Aliquots (0.1 ml) of the supernatant were removed at 24 hours and frozen at -80° C. These samples were subsequently assayed for tumor necrosis factor (TNF) activity using a commercially available ELISA Assay from T-Cell Sciences (Cambridge, Mass.).
Human peripheral blood monocytes were isolated by density gradient centrifugation as described in Example 13. The cells were plated in 24-well microliter plates as described in Example 33. The compounds Were prepared in liposomes as described in Example 10, and assayed for TNF production, as described in Example 33. The results are set forth in Table 5, and show significant levels of TNF compared to controls.
as §1, with “of” for “of a”, “zero. The compounds were also formulated in liposomes as described in Example 10, and added in a volume of 0.5 ml to individual wells of a 24-well Plastek tissue culture plate.” for “zero.”, “-20°” for “-80°”, “TNF as described in Example 33 and Interleukin-1-beta (IL-1β)” for “tumor necrosis factor (TNF) activity”, “kit” for “Assay”, “Cistron (Pine Brook, N.J.).” for “T-Cell Sciences (Cambridge, Mass.).”

Meth A sarcoma [2] = test: Effect with lipopolysaccharide on growth of Meth A sarcoma in mice; format: in vivo
Experimental: BALB/C mice 7-8 weeks of age were injected subcutaneously with Meth A sarcoma (1×10^6 cells) and treated intravenously on day 8 with 10 μg of lipopolysaccharide (LPS) from Salmonella typhimurium ReG 30/21 alone or combined with 1 or 10 μg of MDP or Compound IIA. Tumor growth was compared on day 6 following therapy.
The animals were followed and the percent cured determined at 60 days post-injection.

[3] = tested on: human peripheral blood monocytes; test: Activation of monocytes in vitro measured by production of Interleukin-1-beta (ELISA); format: cell-based; settings: 24 Hours
Experimental: as §1, with “of” for “of a”, “zero. The compounds were also formulated in liposomes as described in Example 10, and added in a volume of 0.5 ml to individual wells of a 24-well Plastek tissue culture plate.” for “zero.”, “-20°” for “-80°”, “TNF as described in Example 33 and Interleukin-1-beta (IL-1β)” for “tumor necrosis factor (TNF) activity”, “kit” for “Assay”, “Cistron (Pine Brook, N.J.).” for “T-Cell Sciences (Cambridge, Mass.).”

Balb/c mice = test: Adjuvant activity on antibody producing cells: plaque forming units per spleen after SRBC immunization; format: in vivo
Experimental: The efficacy of the compound of the invention in inducing antibody response was evaluated in an immuno-compromised model using aged Balb/c mice and in normal mice using a suboptimal dose of the immunogen.
[…] The spleen was removed on day 4 and assayed for plaque forming units.
The results (Table 1) indicated a total of 66×10^3 plaque forming units (PFU) per spleen for controls, 198×10^3 PFU per spleen for mice receiving SRBC mixed with 0.1 mg MDP and 442×10^3 PFU for mice receiving SRBC mixed with 0.1 mg. of a compound of the invention IIA. Similarly, young Balb/c mice were immunized intraperitoneally with a suboptimal dose of SRBC (1×10^7 cells) in saline or mixed with 0.01 of 0.1 mg of MDP or IIA.

[4] = tested on: Human peripheral blood mononuclear cells; test: Activation of monocytes in vitro measured by in vitro tumor cell cytotoxicity; format: cell-based
Experimental: Human peripheral blood mononuclear cells were isolated by density gradient centrifugation on 46% Percoll. 1×10^5 of the mononuclear cells were plated onto Falcon microliter plates and allowed to adhere for two hours. The non-adherent cells were removed and fresh media added. The cells were allowed to incubate for 24 hours after which various concentrations of the drug either alone or incorporated in liposomes was added. After 24 hours, the plates were washed and 1×10^4 I^125 labelled target cells were added. Following an additional 72 hours of coincubation, the plates were washed and the residual radioactivity determined. The specific cytotoxicity was calculated from the formula: [formula] The results of cytotoxicity assay of various compounds alone or incorporated in liposomes at various concentrations is given in Table 6.

Meth A sarcoma [5] = test: Antitumor activity in saline in the Meth A sarcoma; format: in vivo, mice
Experimental: BALB/C female mice, age 7 weeks, were injected subcutaneously with 1×10^6 Meth A tumor cells. Eight days later the animals were treated intravenously with either saline (control) or Compound IIA at a dose of 1, 10, or 100 micrograms (μg). Each group consisted of 4 animals. Tumor measurements were taken every 2 days for 10 days and the mice followed for 60 days until cured or death due to tumor occurred.

[6] = 1.0 μg combined with 10 μg LPS i.v. on day 8
[7] = 10 μg combined with 10 μg LPS i.v. on day 8

## CCCCCCCCCCCCCCCC(=O)OCC(COC(=O)C(C)NC(=O)CCC(NC(=O)C(C)NC(=O)C(C)OC1C(NC(C)=O)C(O)OC(CO)C1OC1OC(CO)C(O)C(O)C1NC(C)=O)C(N)=O)OC(=O)CCCCCCCCCCCCCCC [Compound IIA, 4-O-[2-acetamido-2-deoxy-β-D-glucopyranosyl]-2-acetamido-2-deoxy-3-O-[D-2-propanoyl-L-alanyl-D-isoglutaminyl-L-alanyl-1,2-dipalmitoyl-sn-glycerol]-D-glucopyranose]
[1]; Experiment 1, free drug in saline 0.1 μg/ml, 24 hours
  TNF Level: 1760 pg/mL
[1]; Experiment 1, free drug in saline 1.0 μg/ml, 24 hours
  TNF Level: 1600 pg/mL
[1]; Experiment 1, free drug in saline 10.0 μg/ml, 24 hours
  TNF Level: 4550 pg/mL
[1]; Experiment 2, free drug in saline 0.1 μg/ml, 24 hours
  TNF Level: 1450 pg/mL
[1]; Experiment 2, free drug in saline 1.0 μg/ml, 24 hours
  TNF Level: 1580 pg/mL
[1]; Experiment 2, free drug in saline 10.0 μg/ml, 24 hours
  TNF Level: 1630 pg/mL
[1]; Experiment 3, free drug in saline 0.1 μg/ml, 24 hours
  TNF Level: 1450 pg/mL
[1]; Experiment 3, free drug in saline 1.0 μg/ml, 24 hours
  TNF Level: 1650 pg/mL
[1]; Experiment 3, free drug in saline 10.0 μg/ml, 24 hours
  TNF Level: 1800 pg/mL
[1]; Table 5, compound incorporated in liposomes, 0.1 μg/ml
  TNF Level: 1270 pg/mL
[1]; Table 5, compound incorporated in liposomes, 1.0 μg/ml
  TNF Level: 850 pg/mL
[1]; Table 5, compound incorporated in liposomes, 10.0 μg/ml
  TNF Level: 1050 pg/mL
[1]; Table 7, Experiment 1, 0.01 μg/ml
  TNF (pg/ml) at given Concentration of Compound: 650 pg/mL
[1]; Table 7, Experiment 1, 0.1 μg/ml
  TNF (pg/ml) at given Concentration of Compound: 460 pg/mL
[1]; Table 7, Experiment 1, 1.0 μg/ml
  TNF (pg/ml) at given Concentration of Compound: 620 pg/mL
[1]; Table 7, Experiment 1, 10.0 μg/ml
  TNF (pg/ml) at given Concentration of Compound: 500 pg/mL
[1]; Table 9, Experiment 2, 0.1 μg/ml
  TNF (pg/ml) at given Concentration of Compound: 1400 pg/mL
[1]; Table 9, Experiment 2, 1.0 μg/ml
  TNF (pg/ml) at given Concentration of Compound: 1700 pg/mL
[1]; Table 9, Experiment 2, 10.0 μg/ml
  TNF (pg/ml) at given Concentration of Compound: 1070 pg/mL
Meth A sarcoma [2]; [6]
  Complete Regression at Day 60: 50%
  Percent Change in Average Tumor Area 6 Days Post Treatment: -56%
Meth A sarcoma [2]; [7]
  Complete Regression at Day 60: 100%
  Percent Change in Average Tumor Area 6 Days Post Treatment: -67%
Meth A sarcoma [2]; Table 3, Meth A sarcoma
  interaction with LPS: synergistic activity
[3]; Table 8, Experiment 1, 0.01 μg/ml
  IL-1-beta (pg/ml) at given Concentration of Compound: 260 pg/mL
[3]; Table 8, Experiment 1, 0.1 μg/ml
  IL-1-beta (pg/ml) at given Concentration of Compound: 220 pg/mL
[3]; Table 8, Experiment 1, 1.0 μg/ml
  IL-1-beta (pg/ml) at given Concentration of Compound: 244 pg/mL
[3]; Table 8, Experiment 1, 10.0 μg/ml
  IL-1-beta (pg/ml) at given Concentration of Compound: 264 pg/mL
Balb/c mice; 3 months old mice, SRBC inoculum 1 × 10^7 i.p., 0.01 mg/mouse
  PFU ×10^3: 184 ×10^3
Balb/c mice; 3 months old mice, SRBC inoculum 1 × 10^7 i.p., 0.1 mg/mouse
  PFU ×10^3: 468 ×10^3
Balb/c mice; 18 months old mice, SRBC inoculum 1 × 10^8 i.p., 0.1 mg/mouse, spleen day 4
  PFU ×10^3: 442 ×10^3
Balb/c mice; aged Balb/c mice (18 months), SRBC mixed with 0.1 mg
  plaque forming units (PFU) per spleen: 442×10^3 PFU per spleen
[4]; PC/PS liposomes (7:3), 0.1 μg/ml
  Cytotoxicity: 1.0%
[4]; PC/PS liposomes (7:3), 1.0 μg/ml
  Cytotoxicity: 8.0%
[4]; PC/PS liposomes (7:3), 10.0 μg/ml
  Cytotoxicity: 12.0%
[4]; no formulation given (drug alone), 0.1 μg/ml
  Cytotoxicity: 5.0%
[4]; no formulation given (drug alone), 1.0 μg/ml
  Cytotoxicity: 4.0%
[4]; no formulation given (drug alone), 10.0 μg/ml
  Cytotoxicity: 3.0%
Meth A sarcoma [5]; 100 μg i.v.
  animals exhibiting complete regression of tumor: one of four
Meth A sarcoma [5]; day 6 after therapy, single i.v. dose of 100 μg
  decrease in tumor growth: 50%
